# Reference: BindingDB's records for doi:10.7270/Q2N014W6 (Burnham Center for Chemical Genomics, 2008)
# Target: T1, Bcl-2-related protein A1 (Mus musculus, UniProt Q07440)
# T1 sequence (Q07440 whole entry): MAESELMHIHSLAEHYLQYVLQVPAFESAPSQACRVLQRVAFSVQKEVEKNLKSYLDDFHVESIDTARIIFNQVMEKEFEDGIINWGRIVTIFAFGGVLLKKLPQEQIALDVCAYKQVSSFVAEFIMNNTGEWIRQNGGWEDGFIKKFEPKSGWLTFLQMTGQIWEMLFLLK
# Test: Bfl-1 inhibitors, primary screen, biochemical, fluorescence polarization, FITC-Bid, mouse (AID 432)
# Settings: pH 7; 23 °C
row,Compound,IC50
1,O=C1C(=O)N(c2ncccn2)C(c2cccc(Cl)c2)C1C(=O)c1ccco1 (stereo not drawn) [2-(3-chlorophenyl)-3-(furan-2-carbonyl)-4-hydroxy-1-pyrimidin-2-yl-2H-pyrrol-5-one],> 100 µM
2,"CCCN1CCC2=C(C#N)C(=N)C(C#N)(C#N)C(c3cccc(OC)c3OC)C2C1 (stereo not drawn) [6-amino-8-(2,3-dimethoxyphenyl)-2-propyl-1,3,8,8a-tetrahydroisoquinoline-5,7,7-tricarbonitrile]",> 100 µM
3,"CN1CCC2=C(C#N)C(=N)C(C#N)(C#N)C(c3cccc(Cl)c3Cl)C2C1 (stereo not drawn) [6-azanyl-8-[2,3-bis(chloranyl)phenyl]-2-methyl-1,3,8,8a-tetrahydroisoquinoline-5,7,7-tricarbonitrile]",> 100 µM
4,"CN1CCC2=C(C#N)C(=N)C(C#N)(C#N)[C@H](c3cccc(Cl)c3)C2C1 (stereo partly drawn) [(8S)-6-amino-8-(3-chlorophenyl)-2-methyl-1,3,8,8a-tetrahydroisoquinoline-5,7,7-tricarbonitrile]",> 100 µM

# Other lines, results leading:
row,IC50,Compound
1,> 100 µM,Cc1ccc(C2C3CN(C(C)C)CCC3=C(C#N)C(=N)C2(C#N)C#N)cc1 (stereo not drawn) [SMR000034220]
2,> 100 µM,"OCCCc1nc2n(n1)C(c1cccs1)CC(c1ccccc1)=N2 (stereo not drawn) [3-(5-phenyl-7-thiophen-2-yl-1,7-dihydro-[1,2,4]triazolo[1,5-a]pyrimidin-2-yl)-1-propanol]"
3,> 100 µM,"COc1ccc(N2C(=O)C(=Nc3c(C)n(C)n(-c4ccccc4)c3=O)C(Cl)C2=O)cc1 (stereo not drawn) [3-chloranyl-4-[(1,5-dimethyl-3-oxidanylidene-2-phenyl-pyrazol-4-yl)amino]-1-(4-methoxyphenyl)pyrrole-2,5-dione]"
4,> 100 µM,c1ccc(-c2ccc(C3=Nc4ncnn4C(c4ccco4)C3)cc2)cc1 (stereo not drawn)
